Test results: patent publication US20150125457A1, “BONE REPAIR PROMOTER” (DAIICHI SANKYO COMPANY, LIMITED, priority 2012, published 2015)
Where “and” joins values, the source holds several entries; their conditions need not be identical. Equal values may be shown once.

How the values were obtained:
Type in all cases: in vivo
[1] = tested on: type X collagen gene; assay: Rat closed femur fracture model, cartilage-related marker gene expression (real-time PCR); conditions: 7 days after fracture
Protocol: (§1) In accordance with the method of Example 2, a rat closed fracture model was prepared. For an animal in a Sham group, a pin only was inserted into the femur, and a bone fracture was not prepared. An administration solution of CNP derivative A was prepared so as to be a dosage corresponding to 0.5 mg/kg/day, and then loaded into an osmotic pump (model 2001, Alzet). The osmotic pump was buried under the skin of the neck back of the animal, and continuous subcutaneous administration was performed for one week. Vehicle was continuously subcutaneously administered to the control group. 7 days after the preparation of the bone fracture, the animal was subjected to isoflurane inhalation anesthesia, retained in a supine position to open the abdomen, and then bled for the euthanasia. The left femur was resected, and immersed into RNAlater (Life Technologies Corporation). The diaphysis or part of the callus was cut out from the femur that had been refrigerated in RNAlater for one day or more. To the cut-out diaphysis or part of the callus, QIAzol (QIAGEN) was added, and the resultant was crushed with tungsten beads. The total RNA was extracted by an RNeasy Mini Kit (QIAGEN), and 1st strand cDNA was synthesized by a SuperScript VILO cDNA Synthesis Kit (Life Technologies Corporation). The gene expression level was measured by a real-time PCR method using TaqMan Gene Expression Master Mix (Life Technologies Corporation). The measured value was standardized by the gene expression level of ubiquitin-C. The standardization was performed for 12 cases in each group.
In accordance with the method of Example 2, a rat closed fracture model was prepared. An administration solution was prepared so as to be a dosage corresponding to 0.5 mg/kg/day by using various NPR-B agonists (CNP derivative A, hCNP-53 (SEQ ID NO: 2), CNP derivative C (CNP-36, amino acid Nos. 18 to 53 of SEQ ID NO: 2), and CNP derivative D (Pro-Gly-CNP37, SEQ ID NO: 15)), and then loaded into an osmotic pump (Model 2001, Alzet). The osmotic pump was buried under the skin of the neck back of the animal retained in a supine position, and continuous subcutaneous administration was performed for one week. Vehicle was administered to the control group. 7 days after the preparation of the bone fracture, the animal was subjected to isoflurane inhalation anesthesia, retained in a supine position to open the abdomen, and then subjected to blood collection from the abdominal aorta. EDTA Na was added to the blood, then the EDTA Na-added blood was centrifuged and the plasma separated, and the resultant was cryopreserved. At a later date, the cGMP level in the plasma was measured by a RIA method using a kit (YSI-7702, YAMASA CORPORATION). After blood collection, the animal was bled for the euthanasia, and then the left femur was resected. Each maximum diameter of the sagittal plane and the coronal plane in the callus was measured, and the average value was used as a callus diameter. In accordance with the method of Example 3, the type X collagen gene expression level in the callus was measured. The measurement was performed for 12 cases in each group.

[2] = tested on: Sox9 gene; assay: as above; conditions: 0.5 mg/kg/day continuous s.c. (osmotic pump) for one week; 7 days after fracture; normalized to ubiquitin C
Protocol: as §1, with “The total RNA was extracted by an RNeasy Mini Kit (QIAGEN), and 1st strand cDNA was synthesized by a SuperScript VILO cDNA Synthesis Kit (Life Technologies Corporation).” left out, “The standardization was performed for 12 cases in each group.” left out

[3] = tested on: rat femur fracture model; assay: Rat femur fracture model (surgically cut femoral diaphysis), three-point bending bone strength test; conditions: for Break deformation / Break energy / Break strength / Maximum load / Stiffness (Δ70%-20%) / Break deformation, left/right ratio / Break energy, left/right ratio / Break strength, left/right ratio / Maximum load, left/right ratio / Stiffness (Δ70%-20%), left/right ratio: mean ± SD, N=10; for Break deformation, left/right ratio / Break energy, left/right ratio / Break strength, left/right ratio / Maximum load, left/right ratio / Stiffness (Δ70%-20%), left/right ratio: ratio of left/right femurs
Protocol: A fracture model was surgically prepared at the left femoral diaphysis of a 6-week-old female SD strain (Crl: CD) IGS rat. A barbital-based anesthetic agent (Somnopentyl®, Kyoritsu Seiyaku Corporation) was intraperitoneally administered to an animal in order to anesthetize the animal. Isoflurane (Escain, Mylan Inc.) inhalation anesthesia was performed as an adjunct to anesthesia. The skin on the upside of the knee joint was incised, exfoliation was performed between the rectus femoris muscle and the vastus lateralis muscle to expose the femur. At around 0.5 mm distal from the center of the femoral diaphysis, the diaphysis was completely cut in cross-section by a bone cutter (Osada Equipment Co., Ltd.). After that, an injection needle 21G was inserted into the bone marrow between the greater trochanter and the femur neck of the left femur, and the muscle and the skin were sutured with 2 to 3 stitches. For the prevention of post-operative suppuration, potassium penicillin G for injection (Meiji Seika Kaisha, Limited) was administered as an antibiotic, and the suture site of the skin was disinfected with povidone-iodine (Isodine®, Meiji Seika Kaisha, Limited). As the test substance, CNP derivative A (SEQ ID NO: 13: the SEQ ID NO: 157 of the publication of US patent application US 2010-305031, produced by a method described in the publication) was used for repeated subcutaneous administration at 10 or 100 nmol/kg once per day for 8 weeks. Vehicle was administered to the control group. On the next day after the administration end date, the left and right femurs and the left and right tibiae were resected. For the resected bone, the bone length, and the callus size in the fracture site were measured, the left and right femurs were subjected to soft X-ray radiography, and then the healing state in the fracture site was determined. After that, a three-point bending strength test was performed by using a bone strength measuring device MZ-500S (MARUTO INSTRUMENT CO., LTD.), and a bone strength testing system CTR win Ver. 1.21 (System Supply Co., Ltd.). The bone after finishing the measurements was fixed with 10% neutral buffered formalin, and the pathologic sample was prepared and observed. The administration was performed to a group of 14 rats including spare rats. At 2, 4, and 6 weeks after the administration, one from each of the cases was sampled for follow-up, further the one in the control group, which had shown nonunion-like symptoms, was excluded from the evaluation, and eventually the results were evaluated as a group of 10 rats.

[4] = 10 nmol/kg s.c. once per day for 8 weeks, fractured left femur
[5] = 10 nmol/kg s.c. once per day for 8 weeks
[6] = 10 nmol/kg s.c. once per day for 8 weeks, untreated right femur
[7] = 100 nmol/kg s.c. once per day for 8 weeks, fractured left femur
[8] = 100 nmol/kg s.c. once per day for 8 weeks
[9] = 100 nmol/kg s.c. once per day for 8 weeks, untreated right femur

CNP derivative A: CNP (1-22) Ghrelin (12-28, E17D): SEQ ID NO: 13; SEQ ID NO: 157 of US 2010-305031 (GLSKGCFGLKLDRIGSMSGLGCVQQRKDSKKPPAKLQPR; Chimeric CNP J (SEQ ID NO157) of US2010-305031 and WO2009/142307, and CNP derivative A of current invention.)
Gene expression of type X collagen in fractured left femur ([1]; Example 3: 0.5 mg/kg/day continuous s.c. (osmotic pump) for one week, normalized to ubiquitin C): significantly suppressed | Gene expression level of type X collagen in the callus ([1]; Example 4: 0.5 mg/kg/day continuous s.c. for one week, versus vehicle group, FIG. 5C): suppressed | Gene expression level of Sox9 in fractured left femur [2]: this high level was maintained | Break deformation [3, 4]: 1.15 ± 0.58 mm | Break energy [3, 4]: 45.91 ± 26.15 N.mm | Break strength [3, 4]: 72.05 ± 30.40 N | Maximum load [3, 4]: 81.98 ± 34.64 N | Stiffness (Δ70%-20%) [3, 4]: 138.36 ± 89.14 N/mm | Break deformation, left/right ratio [3, 5]: 1.15 ± 0.57 | Break energy, left/right ratio [3, 5]: 0.75 ± 0.33 | Break strength, left/right ratio [3, 5]: 0.80 ± 0.33 | Maximum load, left/right ratio [3, 5]: 0.86 and 0.86 ± 0.35 | Stiffness (Δ70%-20%), left/right ratio [3, 5]: 0.75 ± 0.48 | Break deformation [3, 6]: 0.99 ± 0.15 mm | Break energy [3, 6]: 59.55 ± 12.33 N.mm | Break strength [3, 6]: 89.22 ± 6.58 N | Maximum load [3, 6]: 95.08 ± 5.29 N | Stiffness (Δ70%-20%) [3, 6]: 187.11 ± 32.64 N/mm | Break deformation [3, 7]: 1.04 ± 0.45 mm | Break energy [3, 7]: 53.90 ± 24.24 N.mm | Break strength [3, 7]: 80.02 ± 15.97 N | Maximum load [3, 7]: 87.59 ± 19.00 N | Stiffness (Δ70%-20%) [3, 7]: 162.09 ± 105.67 N/mm | Break deformation, left/right ratio [3, 8]: 1.02 ± 0.38 | Break energy, left/right ratio [3, 8]: 0.90 and 0.90 ± 0.36 | Break strength, left/right ratio [3, 8]: 1.06 ± 0.33 | Maximum load, left/right ratio [3, 8]: 1.03 and 1.03 ± 0.28 | Stiffness (Δ70%-20%), left/right ratio [3, 8]: 0.85 ± 0.64 | Break deformation [3, 9]: 1.01 ± 0.17 mm | Break energy [3, 9]: 60.82 ± 13.73 N.mm | Break strength [3, 9]: 77.75 ± 10.46 N | Maximum load [3, 9]: 86.89 ± 10.96 N | Stiffness (Δ70%-20%) [3, 9]: 200.64 ± 43.22 N/mm | Break energy in a fracture site of the left femur, dose dependence ([3]; 10 and 100 nmol/kg s.c. once per day for 8 weeks, versus vehicle): increased CNP derivative A-dose dependently
